Data: article PMC10850145, “Hormonal steroids induce multidrug resistance and stress response genes in Neisseria gonorrhoeae by binding to MtrR” (Nature Communications, 2024)
Where “and” joins values, the source holds several entries; their conditions need not be identical. Equal entries are not always repeated. Where two headings read alike, the source gives them in different places.

Tested on: mtrC-lacZ expression
Type: cell-based, Neisseria gonorrhoeae
Conditions: for mtrC-lacZ β-galactosidase activity, Mean: left block of sheet (mtrCDE); for β-galactosidase activity, Mean: second (right) untitled block of sheet Figure S10 (mtrC)
[1] = strain ΔmtrR + mtrR R176E, 6.25 µM hormone
[2] = strain ΔmtrR + mtrR R176E, 12.5 µM hormone
[3] = strain ΔmtrR + mtrR R176E, 25 µM hormone
[4] = strain ΔmtrR + mtrR R176E, 50 µM hormone
[5] = strain ΔmtrR + mtrR WT, 6.25 µM hormone
[6] = strain ΔmtrR + mtrR WT, 12.5 µM hormone
[7] = strain ΔmtrR + mtrR WT, 25 µM hormone
[8] = strain ΔmtrR + mtrR WT, 50 µM hormone

SMILES: CC(=O)[C@H]1CC[C@H]2[C@@H]3CCC4=CC(=O)CC[C@]4(C)[C@H]3CC[C@]12C [Progesterone, progesterone]
- β-galactosidase activity, mtrC-lacZ, Mean (strain WT (FA19/pLES94-mtrC), hormone 6.25 µM): 97 Miller units
- β-galactosidase activity, mtrC-lacZ, Mean (strain WT (FA19/pLES94-mtrC), hormone 12.5 µM): 126 Miller units
- β-galactosidase activity, mtrC-lacZ, Mean (strain WT (FA19/pLES94-mtrC), hormone 25 µM): 146 Miller units
- β-galactosidase activity, mtrC-lacZ, Mean (strain WT (FA19/pLES94-mtrC), hormone 50 µM): 139 Miller units
- mtrC-lacZ β-galactosidase activity, Mean (strain WT, 6.25 µM hormone): 108 Miller units
- β-galactosidase activity, Mean (strain WT, 6.25 µM hormone): 36 Miller units
- mtrC-lacZ β-galactosidase activity, Mean (strain WT, 12.5 µM hormone): 144 Miller units
- β-galactosidase activity, Mean (strain WT, 12.5 µM hormone): 47 Miller units
- mtrC-lacZ β-galactosidase activity, Mean (strain WT, 25 µM hormone): 194 Miller units
- β-galactosidase activity, Mean (strain WT, 25 µM hormone): 70 Miller units
- mtrC-lacZ β-galactosidase activity, Mean (strain WT, 50 µM hormone): 222 Miller units
- β-galactosidase activity, Mean (strain WT, 50 µM hormone): 97 Miller units
- activation of mtrC (strain producing MtrR R176E): almost no activation
- β-galactosidase activity, mtrC-lacZ, Mean (strain ΔmtrR (FA19 ∆mtrR/pLES94-mtrC), hormone 6.25 µM): 210 Miller units
- β-galactosidase activity, mtrC-lacZ, Mean (strain ΔmtrR (FA19 ∆mtrR/pLES94-mtrC), hormone 12.5 µM): 191 Miller units
- β-galactosidase activity, mtrC-lacZ, Mean (strain ΔmtrR (FA19 ∆mtrR/pLES94-mtrC), hormone 25 µM): 234 Miller units
- β-galactosidase activity, mtrC-lacZ, Mean (strain ΔmtrR (FA19 ∆mtrR/pLES94-mtrC), hormone 50 µM): 188 Miller units
- β-galactosidase activity, mtrC-lacZ, Mean (strain ΔmtrR + mtrR D171A (pGCC3-mtrR D171A), hormone 6.25 µM): 146 Miller units
- β-galactosidase activity, mtrC-lacZ, Mean (strain ΔmtrR + mtrR D171A (pGCC3-mtrR D171A), hormone 12.5 µM): 142 Miller units
- β-galactosidase activity, mtrC-lacZ, Mean (strain ΔmtrR + mtrR D171A (pGCC3-mtrR D171A), hormone 25 µM): 168 Miller units
- β-galactosidase activity, mtrC-lacZ, Mean (strain ΔmtrR + mtrR D171A (pGCC3-mtrR D171A), hormone 50 µM): 106 Miller units
- mtrC-lacZ β-galactosidase activity, Mean [1]: 217 Miller units
- β-galactosidase activity, Mean [1]: 91 Miller units
- mtrC-lacZ β-galactosidase activity, Mean [2]: 208 Miller units
- β-galactosidase activity, Mean [2]: 92 Miller units
- mtrC-lacZ β-galactosidase activity, Mean [3]: 226 Miller units
- β-galactosidase activity, Mean [3]: 111 Miller units
- mtrC-lacZ β-galactosidase activity, Mean [4]: 231 Miller units
- β-galactosidase activity, Mean [4]: 98 Miller units
- β-galactosidase activity, mtrC-lacZ, Mean (strain ΔmtrR + mtrR WT (pGCC3-mtrR), hormone 6.25 µM): 84 Miller units
- β-galactosidase activity, mtrC-lacZ, Mean (strain ΔmtrR + mtrR WT (pGCC3-mtrR), hormone 12.5 µM): 89 Miller units
- β-galactosidase activity, mtrC-lacZ, Mean (strain ΔmtrR + mtrR WT (pGCC3-mtrR), hormone 25 µM): 113 Miller units
- β-galactosidase activity, mtrC-lacZ, Mean (strain ΔmtrR + mtrR WT (pGCC3-mtrR), hormone 50 µM): 129 Miller units
- mtrC-lacZ β-galactosidase activity, Mean [5]: 95 Miller units
- β-galactosidase activity, Mean [5]: 19 Miller units
- mtrC-lacZ β-galactosidase activity, Mean [6]: 111 Miller units
- β-galactosidase activity, Mean [6]: 24 Miller units
- mtrC-lacZ β-galactosidase activity, Mean [7]: 124 Miller units
- β-galactosidase activity, Mean [7]: 34 Miller units
- mtrC-lacZ β-galactosidase activity, Mean [8]: 160 Miller units
- β-galactosidase activity, Mean [8]: 45 Miller units
- mtrC-lacZ β-galactosidase activity, Mean (strain ΔmtrR, 6.25 µM hormone): 311 Miller units
- β-galactosidase activity, Mean (strain ΔmtrR, 6.25 µM hormone): 126 Miller units
- mtrC-lacZ β-galactosidase activity, Mean (strain ΔmtrR, 12.5 µM hormone): 285 Miller units
- β-galactosidase activity, Mean (strain ΔmtrR, 12.5 µM hormone): 129 Miller units
- mtrC-lacZ β-galactosidase activity, Mean (strain ΔmtrR, 25 µM hormone): 297 Miller units
- β-galactosidase activity, Mean (strain ΔmtrR, 25 µM hormone): 134 Miller units
- mtrC-lacZ β-galactosidase activity, Mean (strain ΔmtrR, 50 µM hormone): 286 Miller units
- β-galactosidase activity, Mean (strain ΔmtrR, 50 µM hormone): 97 Miller units
- β-galactosidase activity, Miller units (single replicate) (ΔmtrR + mtrR WT in trans, 6.25 µM, first data set (c15-c36)): 95 Miller units
- β-galactosidase activity, Miller units (single replicate) (ΔmtrR + mtrR WT in trans, 6.25 µM, second data set (c53-c74)): 19 Miller units and 16 Miller units and 17 Miller units and 23 Miller units
- β-galactosidase activity, Miller units (single replicate) (ΔmtrR + mtrR WT in trans, 12.5 µM, first data set (c15-c36)): 114 Miller units
- β-galactosidase activity, Miller units (single replicate) (ΔmtrR + mtrR WT in trans, 12.5 µM, second data set (c53-c74)): 22 Miller units and 26 Miller units and 24 Miller units
- β-galactosidase activity, Miller units (single replicate) (ΔmtrR + mtrR WT in trans, 25 µM, first data set (c15-c36)): 128 Miller units
- β-galactosidase activity, Miller units (single replicate) (ΔmtrR + mtrR WT in trans, 25 µM, second data set (c53-c74)): 39 Miller units and 34 Miller units and 32 Miller units and 31 Miller units
- β-galactosidase activity, Miller units (single replicate) (ΔmtrR + mtrR WT in trans, 50 µM, first data set (c15-c36)): 194 Miller units
- β-galactosidase activity, Miller units (single replicate) (ΔmtrR + mtrR WT in trans, 50 µM, second data set (c53-c74)): 54 Miller units and 51 Miller units and 38 Miller units and 39 Miller units
- β-galactosidase activity, Miller units (single replicate) (ΔmtrR, 6.25 µM, first data set (c15-c36)): 324 Miller units and 312 Miller units and 315 Miller units and 294 Miller units
- β-galactosidase activity, Miller units (single replicate) (ΔmtrR, 6.25 µM, second data set (c53-c74)): 161 Miller units and 130 Miller units and 118 Miller units and 97 Miller units
- β-galactosidase activity, Miller units (single replicate) (ΔmtrR, 12.5 µM, first data set (c15-c36)): 289 Miller units and 316 Miller units and 292 Miller units and 245 Miller units
- β-galactosidase activity, Miller units (single replicate) (ΔmtrR, 12.5 µM, second data set (c53-c74)): 170 Miller units and 117 Miller units and 123 Miller units and 105 Miller units
- β-galactosidase activity, Miller units (single replicate) (ΔmtrR, 25 µM, first data set (c15-c36)): 397 Miller units and 288 Miller units and 270 Miller units and 234 Miller units
- β-galactosidase activity, Miller units (single replicate) (ΔmtrR, 25 µM, second data set (c53-c74)): 195 Miller units and 111 Miller units and 136 Miller units and 96 Miller units
- β-galactosidase activity, Miller units (single replicate) (ΔmtrR, 50 µM, first data set (c15-c36)): 318 Miller units and 329 Miller units and 263 Miller units and 234 Miller units
- β-galactosidase activity, Miller units (single replicate) (ΔmtrR, 50 µM, second data set (c53-c74)): 134 Miller units and 92 Miller units and 84 Miller units and 79 Miller units
